Data on eight molecules can be found in patent publication EP2914280B1, “SOMATOSTATIN-DOPAMINE CHIMERIC ANALOGS” (IPSEN PHARMA S.A.S., priority 2012, dated 2014).

Read-outs that look alike come from different tables or passages of the source. Numbered stars: 1 amine (or outer) side, 2 acyl side, 3 side chain; on linkers, the order of the positions; unused ones are H or OH. Bridge positions count the residues as written; N and C are the ends. Square brackets hold non-standard residues; d marks the D form. Peptide text beside a SMILES is read from it. * marks the point of attachment. X1 = CN1C[C@H](CSCCN(CCSC[C@@H]2C[C@@H]3c4cccc5[nH]cc(c45)C[C@H]3N(C)C2)[C@H](CCCCN[*:2])C(=O)[*:1])C[C@@H]2c3cccc4[nH]cc(c34)C[C@H]21; X2 = CN1C[C@H](CSCC(=O)*)C[C@@H]2c3cccc4[nH]cc(c34)C[C@H]21; 4Pal = N[C@@H](Cc1ccncc1)C(=O)O

In assay [1] the target is T1, hDRD2 (Homo sapiens, UniProt P14416). Briefly: cell-based. The arrangement: host or cells: 'Cells expressing hDRD2'. As to conditions: for Emax: read-out: hDRD2 %Emax ± SEM.
T1 sequence (P14416 whole entry): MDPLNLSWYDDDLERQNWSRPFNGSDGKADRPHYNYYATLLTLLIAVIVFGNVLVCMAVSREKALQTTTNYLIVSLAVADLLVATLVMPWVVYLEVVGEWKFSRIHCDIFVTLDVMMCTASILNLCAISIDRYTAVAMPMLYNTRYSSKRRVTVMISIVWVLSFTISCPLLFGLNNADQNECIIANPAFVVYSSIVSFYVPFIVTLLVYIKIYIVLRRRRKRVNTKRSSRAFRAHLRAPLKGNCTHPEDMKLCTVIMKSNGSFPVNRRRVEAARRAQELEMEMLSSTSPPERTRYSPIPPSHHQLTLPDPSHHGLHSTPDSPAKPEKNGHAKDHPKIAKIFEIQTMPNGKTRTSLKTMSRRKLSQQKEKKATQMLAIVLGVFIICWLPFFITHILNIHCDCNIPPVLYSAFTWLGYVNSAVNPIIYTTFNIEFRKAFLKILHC
Assay [2] deals with T1, hDRD2. Briefly: biochemical. The arrangement: expressed in transfected cells; host or cells: CHO-K1, pcDNA3.1/GS, zeocin-selected clonal line; membranes. Format: binding.
Assay [3] has as its target T2, hSSTR2 (Homo sapiens, UniProt P30874).
T2 construct: host or cells: 'Cells expressing hSSTR2'
As to the kind of experiment: Somatostatin receptor radioligand binding assay (hSSTR2).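 Note: radioligand displacement on membranes of CHO-K1 cells stably transfected with human SSTR2, specific binding taken as total minus binding left with 1000 nM SRIF-14.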
Description: (§1) The affinities of a test compound for the human somatostatin receptors were determined by radioligand binding assays in CHO-K1 cells stably transfected with each of the human somatostatin receptor subtypes, hSSTR1-5. […] Clonal cell lines stably expressing each of the somatostatin receptors were obtained by transfection into CHO-K1 cells (ATCC) and subsequently selected with culture media containing 0.8 mg/mL of G418 (Life Technologies).
(§2) Membranes for in vitro receptor binding assays were obtained by the following procedures. […] The supernatant containing the plasma membranes was centrifuged at 100,000 x g for 30 minutes and the pellet was resuspended in buffer containing 20 mM glycine-glycine, 1 mM MgCl2, 250 mM sucrose, pH 7.2, for storage at -80°C.
(§3) For the SSTR1, 2 and 5 assays, membranes and various concentrations of test compounds were incubated in 96-well plates for 60 minutes at 25°C with 0.05 nM [^125I-Tyr^11]-SRIF-14 (for hSSTR1; PerkinElmer Life Science), 0.05 nM [^125I-Tyr]-seglitide (for hSSTR2; PerkinElmer Life Science) or 0.05 nM [^125I-Tyr]-[DPhe-cyclo(Cys-Tyr-DTrp-Lys-Val-Cys)-Thr-NH2] (for hSSTR5; PerkinElmer Life Science) in 50 mM HEPES, 0.2% BSA, 0.1 mM MgCl2, pH 7.5.
(§4) The incubations were terminated by rapid filtration through GF/C glass microfiber filter plates (pre-wet with 0.3% polyethyleneimine and 0.1 % BSA) using a 96-well cell harvester (Brandel). Plates were washed six times with 1 mL/well aliquots of ice-cold buffer containing 50 mM Tris buffer, pH 7.7. Specific binding was defined as the total radioligand bound minus the bound in the presence of 1000 nM SRIF-14.

In assay [4] the target is T2, hSSTR2. As to the kind of experiment: Intracellular calcium mobilization assay (FLIPR Calcium 4), hSSTR2.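 For all read-outs here: agonist activity measured in cells expressing hSSTR2, seeded in 384-well plates, loaded with Calcium 4 dye, read-out as rise in intracellular calcium.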 It is filed as cell-based. Conditions: for improvement in EC50 over Reference Compound A: p value (Student's t-test, one-tailed) < 0.05.
In the next assay the target is T3, hSSTR1 (Homo sapiens, UniProt P30872).
T3 construct: expressed in transfected cells; host or cells: CHO-K1 (ATCC), pcDNA3.1, G418-selected clonal line; membranes
T3 sequence (P30872 whole entry): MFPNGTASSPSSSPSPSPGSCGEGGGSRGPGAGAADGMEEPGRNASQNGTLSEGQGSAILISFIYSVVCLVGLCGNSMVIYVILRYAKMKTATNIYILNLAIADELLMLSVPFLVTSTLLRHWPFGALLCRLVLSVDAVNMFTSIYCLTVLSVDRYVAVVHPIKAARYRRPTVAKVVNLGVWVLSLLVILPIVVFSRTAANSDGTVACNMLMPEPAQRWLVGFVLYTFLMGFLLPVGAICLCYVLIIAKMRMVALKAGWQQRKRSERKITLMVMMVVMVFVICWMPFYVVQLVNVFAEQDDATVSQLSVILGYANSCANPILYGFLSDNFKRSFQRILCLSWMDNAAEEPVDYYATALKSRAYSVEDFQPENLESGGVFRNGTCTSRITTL
As to the kind of experiment: Somatostatin receptor radioligand binding assay (hSSTR1).

A further assay addresses T4, hSSTR5 (Homo sapiens, UniProt P35346).
T4 construct: expressed in transfected cells; host or cells: CHO-K1 (ATCC), pcDNA3.1, G418-selected clonal line; membranes
Briefly: Somatostatin receptor radioligand binding assay (hSSTR5). As to conditions: CHO-K1 cell membranes; 0.05 nM [125I-Tyr]-[DPhe-cyclo(Cys-Tyr-DTrp-Lys-Val-Cys)-Thr-NH2]; 60 minutes at 25°C; read-out: hSSTR5 Ki (nM) ± SEM.
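Throughout, for Emax: agonist activity at human DRD2 in DRD2-expressing cells, read as intracellular calcium mobilization with a FLIPR Calcium 4 fluorescent dye.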

T2 sequence (P30874 whole entry): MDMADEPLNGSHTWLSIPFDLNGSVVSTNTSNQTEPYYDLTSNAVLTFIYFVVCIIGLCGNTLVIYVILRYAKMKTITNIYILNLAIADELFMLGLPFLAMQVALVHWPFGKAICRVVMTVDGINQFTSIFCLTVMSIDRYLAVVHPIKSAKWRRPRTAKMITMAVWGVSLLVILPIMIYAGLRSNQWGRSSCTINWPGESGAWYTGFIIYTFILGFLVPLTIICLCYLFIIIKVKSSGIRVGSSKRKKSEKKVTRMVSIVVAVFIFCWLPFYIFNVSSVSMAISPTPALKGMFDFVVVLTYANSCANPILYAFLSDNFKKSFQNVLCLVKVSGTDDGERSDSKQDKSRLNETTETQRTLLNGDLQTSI
T4 sequence (P35346 whole entry): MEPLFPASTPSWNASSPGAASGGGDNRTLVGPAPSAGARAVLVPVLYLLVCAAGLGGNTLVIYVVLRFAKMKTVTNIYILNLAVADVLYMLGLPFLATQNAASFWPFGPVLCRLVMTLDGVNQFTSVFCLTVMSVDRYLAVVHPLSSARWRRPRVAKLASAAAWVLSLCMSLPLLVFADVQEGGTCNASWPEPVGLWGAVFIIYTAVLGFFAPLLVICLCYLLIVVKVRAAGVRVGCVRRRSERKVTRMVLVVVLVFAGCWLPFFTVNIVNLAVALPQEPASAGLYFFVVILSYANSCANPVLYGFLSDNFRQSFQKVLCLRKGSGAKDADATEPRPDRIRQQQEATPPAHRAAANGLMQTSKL
Description for hSSTR5: as §1, §2, §3, §4

As for `C[C@@H](O)[C@@H]1NC(=O)[C@H](CCCCN)NC(=O)[C@@H](Cc2c[nH]c3ccccc23)NC(=O)[C@H](Cc2ccccc2)NC(=O)[C@H](Cc2ccccc2)NC(=O)[C@H](CCCNC(=N)N)NC(=O)[C@H](NC[C@H](Cc2ccc(O)cc2)NC(=O)C[S+]([O-])C[C@@H]2C[C@@H]3c4cccc5[nH]cc(c45)C[C@H]3N(C)C2)CCCCNC(=O)[C@H](Cc2ccc(F)cc2)NC1=O` (stereo partly drawn) [Compound 13, Dop1(SO)-Tyr-psi(CH2NH)-cyclo(DLys-Arg-Phe-Phe-DTrp-Lys-Thr-4FPhe)], the results for the half-maximal effective concentration (EC50) at hDRD2 [1] and at hSSTR2 [4] were 9.2 ± 2.7 nM and 1.6 ± 0.1 nM, respectively. At hDRD2 [1], the Emax was found to be 93.9 ± 4.5%. For the same molecule, the Ki turned out to be 32.5 ± 8.9 nM on hDRD2 [2], 0.04 ± 0.02 nM at hSSTR2 [3], 8.6 nM on hSSTR1 and 0.23 nM on hSSTR5.

With `C[C@@H](O)[C@@H]1NC(=O)[C@H](CCCCN)NC(=O)[C@@H](Cc2c[nH]c3ccccc23)NC(=O)[C@H](Cc2ccccc2)NC(=O)[C@H](Cc2ccccc2)NC(=O)[C@H](CCCNC(=N)N)NC(=O)[C@H](NCC[S+]([O-])C[C@@H]2C[C@@H]3c4cccc5[nH]cc(c45)C[C@H]3N(C)C2)CCCCNC(=O)[C@H](Cc2ccc(F)cc2)NC1=O` (stereo partly drawn) [Compound 14, Dop1(SO)-psi(CH2NH)-cyclo(DLys-Arg-Phe-Phe-DTrp-Lys-Thr-4FPhe)], the EC50 at hDRD2 [1] stood at 8.7 ± 1.7 nM; at hSSTR2 [4], 1.3 ± 0.1 nM. Also, at hDRD2 [1], the Emax is 103 ± 2.3%. The Ki came to 76.5 ± 13.9 nM at hDRD2 [2], 0.05 ± 0.01 nM at hSSTR2 [3], 6 nM on hSSTR1 and 0.36 nM at hSSTR5.

In the case of `C[C@@H](O)[C@@H]1NC(=O)[C@H](CCCCN)NC(=O)[C@@H](Cc2c[nH]c3ccccc23)NC(=O)[C@H](Cc2ccncc2)NC(=O)[C@H](Cc2ccccc2)NC(=O)[C@H](CCCNC(=N)N)NC(=O)[C@H](NC[C@H](Cc2ccc(O)cc2)NC(=O)C[S+]([O-])C[C@@H]2C[C@@H]3c4cccc5[nH]cc(c45)C[C@H]3N(C)C2)CCCCNC(=O)[C@H](Cc2ccccc2)NC1=O` (stereo partly drawn) [Compound 15, Dop1(SO)-Tyr-psi(CH2NH)-cyclo(DLys-Arg-Phe-4Pal-DTrp-Lys-Thr-Phe)], the EC50 at hDRD2 [1] amounted to 7.4 ± 0.4 nM; at hSSTR2 [4] it was 1.6 ± 0.3 nM. Further, the Emax on hDRD2 [1] is 94.6 ± 0.8%. Moreover, the Ki turned out to be 149 ± 11.3 nM at hDRD2 [2], 0.02 ± 0.01 nM on hSSTR2 [3], 64.4 nM on hSSTR1 and 0.08 nM on hSSTR5.

Turning to `C[C@@H](O)[C@@H]1NC(=O)[C@H](CCCCN)NC(=O)[C@@H](Cc2c[nH]c3ccccc23)NC(=O)[C@H](Cc2ccncc2)NC(=O)[C@H](Cc2ccccc2)NC(=O)[C@H](CCCNC(=N)N)NC(=O)[C@H](NC[C@H](CCCCNC(=O)C[S+]([O-])C[C@@H]2C[C@@H]3c4cccc5[nH]cc(c45)C[C@H]3N(C)C2)NC(=O)C[S+]([O-])C[C@@H]2C[C@@H]3c4cccc5[nH]cc(c45)C[C@H]3N(C)C2)CCCCNC(=O)[C@H](Cc2ccccc2)NC1=O` (stereo partly drawn) [Compound 17, Dop1(SO)-Lys[Dop1(SO)]-psi(CH2NH)-cyclo(DLys-Arg-Phe-4Pal-DTrp-Lys-Thr-Phe)], the 50% effective concentration (EC50) at hDRD2 [1] was found to be 10.2 ± 2.2 nM; on hSSTR2 [4], 10.3 ± 2 nM. Moreover, the maximal effect (Emax) at hDRD2 [1] worked out at 96.9 ± 1.2%. The Ki on hDRD2 [2] is 67.6 ± 18.4 nM; on hSSTR2 [3], 0.08 ± 0.05 nM; at hSSTR1 it was 91.4 nM; at hSSTR5, 0.86 nM.

On to `C[C@@H](O)[C@@H]1NC(=O)[C@H](CCCCN)NC(=O)[C@@H](Cc2c[nH]c3ccccc23)NC(=O)[C@H](Cc2ccncc2)NC(=O)[C@H](Cc2ccccc2)NC(=O)[C@H](CCCNC(=N)N)NC(=O)[C@H](NC(=O)CSC[C@@H]2C[C@@H]3c4cccc5[nH]cc(c45)C[C@H]3N(C)C2)CCCCNC(=O)[C@H](Cc2ccccc2)NC1=O` [Compound 24, Dop1-cyclo(DLys-Arg-Phe-4Pal-DTrp-Lys-Thr-Phe)] (X2-[dK]RF[4Pal][dW]KTF; lactam 1-C), for which, on hDRD2 [1], the maximal effect (Emax) turned out to be 87.8 ± 4%. Moreover, the Ki on hDRD2 [2] (CHO-K1 cell membranes, […] [3H]-spiperone, 60 minutes at 25°C, read-out: hDRD2 Ki (nM) ± SEM) stood at 175 ± 25.6 nM; at hSSTR2 [3] (CHO-K1 cell membranes, 0.05 nM [125I-Tyr]-seglitide, 60 minutes at 25°C, read-out: hSSTR2 Ki (nM) ± SEM), 0.08 ± 0.01 nM; at hSSTR1 (CHO-K1 cell membranes, 0.05 nM [125I-Tyr11]-SRIF-14, 60 minutes at 25°C, read-out: hSSTR1 Ki (nM) ± SEM) it was 47.7 ± 30.7 nM; on hSSTR5, 2.39 nM. Besides, at hSSTR2 [4] (receptor not named), the “improvement in EC50 over Reference Compound A” value is reported as “statistically significant improvement in EC50”. In addition, the “EC50 value lower than that for Reference Compound A” value at hSSTR2 [4] (ratio to Reference Compound A, receptor not named, figures fit hSSTR2) was “about 9 fold”.

Take `C[C@@H](O)[C@@H]1NC(=O)[C@H](CCCCN)NC(=O)[C@@H](Cc2c[nH]c3ccccc23)NC(=O)[C@H](Cc2ccncc2)NC(=O)[C@H](Cc2ccccc2)NC(=O)[C@H](CCCNC(=N)N)NC(=O)[C@H](NC(=O)CSC[C@@H]2C[C@@H]3c4cccc5[nH]cc(c45)C[C@H]3N(C)C2)CCCCNC(=O)[C@H](Cc2ccc(O)cc2)NC1=O` [Compound 25, Dop1-cyclo(DLys-Arg-Phe-4Pal-DTrp-Lys-Thr-Tyr)] (X2-[dK]RF[4Pal][dW]KTY; lactam 1-C): the EC50 at hDRD2 [1] stood at 27 ± 3.3 nM; on hSSTR2 [4], 3.4 ± 1 nM. Further, the Emax on hDRD2 [1] is 82.5 ± 7.6%. In addition, the Ki was 272 ± 119 nM on hDRD2 [2], 0.05 ± 0.01 nM on hSSTR2 [3], 41.9 ± 17.6 nM on hSSTR1 and 0.95 ± 0.1 nM at hSSTR5. Also, at hSSTR2 [4] (receptor not named), the “improvement in EC50 over Reference Compound A” value is recorded as “statistically significant improvement in EC50”.

Regarding `C[C@@H](O)[C@@H]1NC(=O)[C@H](CCCCN)NC(=O)[C@@H](Cc2c[nH]c3ccccc23)NC(=O)[C@H](Cc2ccncc2)NC(=O)[C@H](Cc2ccccc2)NC(=O)[C@H](CCCNC(=N)N)NC(=O)[C@H](N(CCSC[C@@H]2C[C@@H]3c4cccc5[nH]cc(c45)C[C@H]3N(C)C2)CCSC[C@@H]2C[C@@H]3c4cccc5[nH]cc(c45)C[C@H]3N(C)C2)CCCCNC(=O)[C@H](Cc2ccccc2)NC1=O` [Compound 29, bis[Dop1-psi(CH2N)]-cyclo(DLys-Arg-Phe-4Pal-DTrp-Lys-Thr-Phe)] (RF[4Pal][dW]KTF; linker N-C via X1), the EC50 came to 254 ± 111 nM on hDRD2 [1] and 12.1 ± 0.7 nM on hSSTR2 [4]. The Emax at hDRD2 [1] is 89 ± 4.5%. Moreover, the Ki on hDRD2 [2] is 135 ± 66.1 nM; at hSSTR2 [3], 0.14 ± 0.02 nM; on hSSTR1 it was 26.7 nM; on hSSTR5, 2.37 nM. Also, the “improvement in EC50 over Reference Compound A” value at hSSTR2 [4] (receptor not named) was “statistically significant improvement in EC50”.

Take `C[C@@H](O)[C@@H]1NC(=O)[C@H](CCCCN)NC(=O)[C@@H](Cc2c[nH]c3ccccc23)NC(=O)[C@H](Cc2ccccc2)NC(=O)[C@H](Cc2ccccc2)NC(=O)[C@H](CCCNC(=N)N)NC(=O)[C@H](NC[C@H](Cc2ccc(O)cc2)NC(=O)CSC[C@@H]2C[C@@H]3c4cccc5[nH]cc(c45)C[C@H]3N(C)C2)CCCCNC(=O)[C@H](Cc2ccccc2)NC1=O` [Compound 32, Dop1-Tyr-psi(CH2NH)-cyclo(DLys-Arg-Phe-Phe-DTrp-Lys-Thr-Phe)]: the values for the concentration for a half-maximal effect (EC50) at hDRD2 [1] and at hSSTR2 [4] were 35.6 ± 2.4 nM and 13.6 ± 3.4 nM, respectively. The Emax on hDRD2 [1] is 102 ± 12.8%. Also, the Ki was 44 ± 1 nM on hDRD2 [2], 0.28 ± 0.07 nM at hSSTR2 [3], 5.3 ± 2.9 nM at hSSTR1 and 1.58 nM at hSSTR5. Further, the “improvement in EC50 and/or %Emax over Reference Compound B” value at hSSTR2 [4] (receptor not named) is recorded as “statistically significant improvement in EC50 and/or %Emax”.

By EC50 is commonly meant the concentration giving half of the maximal effect. What is called Emax is the greatest response seen or fitted, relative to the assay's reference. As usually defined, the Ki is the equilibrium dissociation constant of an inhibitor or competing ligand from its target.
